Reference: article PMC5951806, “Rapid labelling and covalent inhibition of intracellular native proteins using ligand-directed N-acyl-N-alkyl sulfonamide” (Nature Communications, 2018)

Tests used:
Assay in all cases: TMT LC-MSMS of 11-labelled proteins
Assay type in all cases: cell-based
Prohibitin-2 (PHB2) = Prohibitin-2 (PHB2) (Homo sapiens, UniProt Q99623); details: SKBR3 cells; for Abundance Ratio: (11) / (DMSO): 11 0.5 µM 3 h vs DMSO; for Abundance Ratio: (11) / (11 with PU-H71): 11 0.5 µM 3 h vs with PU-H71 10 µM
[1] = molecular target: T1, Folate transporter 1 (SLC19A1) (Homo sapiens, UniProt P41440)
T1 sequence (P41440 1-591): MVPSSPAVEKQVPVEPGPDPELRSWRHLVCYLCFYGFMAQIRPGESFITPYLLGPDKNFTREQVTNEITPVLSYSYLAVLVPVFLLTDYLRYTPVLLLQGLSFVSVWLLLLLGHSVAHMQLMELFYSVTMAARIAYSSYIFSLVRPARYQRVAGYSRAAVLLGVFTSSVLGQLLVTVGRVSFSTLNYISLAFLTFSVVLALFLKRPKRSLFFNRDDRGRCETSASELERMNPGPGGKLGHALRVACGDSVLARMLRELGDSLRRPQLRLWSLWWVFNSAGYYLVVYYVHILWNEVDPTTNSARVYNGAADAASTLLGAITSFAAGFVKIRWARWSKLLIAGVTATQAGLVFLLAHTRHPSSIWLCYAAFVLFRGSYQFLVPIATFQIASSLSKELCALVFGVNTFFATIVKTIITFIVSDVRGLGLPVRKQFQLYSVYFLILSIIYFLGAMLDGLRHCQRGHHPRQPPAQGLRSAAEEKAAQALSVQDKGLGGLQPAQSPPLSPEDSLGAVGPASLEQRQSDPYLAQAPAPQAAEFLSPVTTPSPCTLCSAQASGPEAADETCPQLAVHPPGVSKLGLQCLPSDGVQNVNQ

[2] = molecular target: Multidrug resistance-associated protein 5 (ABCC5) (Homo sapiens, UniProt O15440)
[3] = molecular target: tubulin beta chain (TUBB) (Homo sapiens, UniProt P07437)
[4] = sheet Merged, SKBR3 cells, 11 0.5 µM 3 h vs DMSO
[5] = sheet Merged, SKBR3 cells, 11 0.5 µM 3 h vs with PU-H71 10 µM
[6] = sheet Exp1, SKBR3 cells, 11 0.5 µM 3 h vs DMSO
[7] = sheet Exp1, SKBR3 cells, 11 0.5 µM 3 h vs with PU-H71 10 µM

Chain of Multidrug resistance-associated protein 5 (ABCC5) (O15440 whole entry): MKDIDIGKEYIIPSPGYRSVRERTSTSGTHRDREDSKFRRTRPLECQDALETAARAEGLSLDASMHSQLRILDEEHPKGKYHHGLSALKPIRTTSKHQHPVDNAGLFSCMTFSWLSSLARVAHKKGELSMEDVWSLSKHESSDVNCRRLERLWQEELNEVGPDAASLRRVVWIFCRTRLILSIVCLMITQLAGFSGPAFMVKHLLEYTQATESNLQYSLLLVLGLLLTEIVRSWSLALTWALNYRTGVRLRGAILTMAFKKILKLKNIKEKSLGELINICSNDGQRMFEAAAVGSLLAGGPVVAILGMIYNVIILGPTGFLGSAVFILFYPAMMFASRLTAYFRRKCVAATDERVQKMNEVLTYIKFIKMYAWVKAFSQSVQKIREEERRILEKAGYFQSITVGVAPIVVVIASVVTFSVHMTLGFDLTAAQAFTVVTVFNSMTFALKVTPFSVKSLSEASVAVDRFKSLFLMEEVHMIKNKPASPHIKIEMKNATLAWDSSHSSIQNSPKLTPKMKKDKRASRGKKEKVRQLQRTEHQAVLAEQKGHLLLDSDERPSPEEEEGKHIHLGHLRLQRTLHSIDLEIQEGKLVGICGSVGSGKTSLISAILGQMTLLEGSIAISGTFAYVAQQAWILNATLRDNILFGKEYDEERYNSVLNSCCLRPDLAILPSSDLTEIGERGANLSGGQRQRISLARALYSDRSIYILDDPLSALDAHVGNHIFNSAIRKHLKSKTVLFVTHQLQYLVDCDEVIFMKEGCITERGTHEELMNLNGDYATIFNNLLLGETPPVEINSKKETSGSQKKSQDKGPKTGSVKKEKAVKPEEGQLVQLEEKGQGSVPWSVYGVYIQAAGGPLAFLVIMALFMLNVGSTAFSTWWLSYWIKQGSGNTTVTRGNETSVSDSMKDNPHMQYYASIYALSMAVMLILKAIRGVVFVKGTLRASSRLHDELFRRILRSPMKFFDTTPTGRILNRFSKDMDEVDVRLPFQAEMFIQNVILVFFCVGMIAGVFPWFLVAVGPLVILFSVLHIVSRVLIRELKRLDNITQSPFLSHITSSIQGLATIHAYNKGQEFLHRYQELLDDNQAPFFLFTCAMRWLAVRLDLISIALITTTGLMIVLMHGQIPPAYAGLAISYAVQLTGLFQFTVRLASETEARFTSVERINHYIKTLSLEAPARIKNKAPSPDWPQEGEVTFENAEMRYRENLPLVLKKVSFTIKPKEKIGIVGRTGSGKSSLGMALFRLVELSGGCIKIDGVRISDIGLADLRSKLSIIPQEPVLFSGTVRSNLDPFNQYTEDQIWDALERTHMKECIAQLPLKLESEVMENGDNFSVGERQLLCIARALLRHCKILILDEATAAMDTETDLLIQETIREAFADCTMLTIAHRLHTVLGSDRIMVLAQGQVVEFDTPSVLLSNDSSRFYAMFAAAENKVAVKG
Chain of tubulin beta chain (TUBB) (P07437 whole entry): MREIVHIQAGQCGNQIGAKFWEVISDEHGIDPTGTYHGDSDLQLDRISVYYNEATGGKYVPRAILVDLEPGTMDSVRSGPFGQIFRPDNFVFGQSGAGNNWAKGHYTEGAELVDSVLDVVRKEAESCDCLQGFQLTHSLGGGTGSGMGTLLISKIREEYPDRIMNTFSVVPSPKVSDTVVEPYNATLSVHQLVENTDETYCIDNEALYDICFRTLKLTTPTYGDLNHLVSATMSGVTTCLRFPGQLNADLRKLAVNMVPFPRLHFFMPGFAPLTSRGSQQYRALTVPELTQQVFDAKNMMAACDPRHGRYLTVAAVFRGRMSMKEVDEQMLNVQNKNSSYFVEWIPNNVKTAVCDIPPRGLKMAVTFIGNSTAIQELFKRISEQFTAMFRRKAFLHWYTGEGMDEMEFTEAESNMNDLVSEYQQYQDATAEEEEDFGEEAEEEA
Chain of tubulin beta chain (TUBB) (P68363 whole entry partner): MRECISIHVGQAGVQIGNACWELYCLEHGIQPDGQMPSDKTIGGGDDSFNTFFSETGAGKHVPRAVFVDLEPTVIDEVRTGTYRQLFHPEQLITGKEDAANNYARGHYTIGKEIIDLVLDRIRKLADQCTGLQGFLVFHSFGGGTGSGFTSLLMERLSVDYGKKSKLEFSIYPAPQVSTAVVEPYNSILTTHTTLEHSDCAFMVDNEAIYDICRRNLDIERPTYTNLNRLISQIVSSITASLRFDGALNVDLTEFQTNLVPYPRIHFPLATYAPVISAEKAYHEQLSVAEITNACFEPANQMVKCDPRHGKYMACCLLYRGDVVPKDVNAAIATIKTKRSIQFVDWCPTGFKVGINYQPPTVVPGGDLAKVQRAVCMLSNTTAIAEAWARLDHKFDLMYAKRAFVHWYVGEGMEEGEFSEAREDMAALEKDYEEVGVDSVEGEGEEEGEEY
Chain of Prohibitin-2 (PHB2) (Q99623 whole entry): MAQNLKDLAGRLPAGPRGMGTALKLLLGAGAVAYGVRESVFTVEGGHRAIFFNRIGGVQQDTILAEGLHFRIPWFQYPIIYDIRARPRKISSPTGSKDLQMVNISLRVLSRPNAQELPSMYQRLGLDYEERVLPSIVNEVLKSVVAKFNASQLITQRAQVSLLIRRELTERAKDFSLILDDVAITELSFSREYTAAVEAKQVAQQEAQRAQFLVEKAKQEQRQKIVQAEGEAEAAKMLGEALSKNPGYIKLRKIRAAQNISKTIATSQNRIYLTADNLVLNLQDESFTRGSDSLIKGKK
Chain of Prohibitin-2 (PHB2) (P35232 whole entry partner): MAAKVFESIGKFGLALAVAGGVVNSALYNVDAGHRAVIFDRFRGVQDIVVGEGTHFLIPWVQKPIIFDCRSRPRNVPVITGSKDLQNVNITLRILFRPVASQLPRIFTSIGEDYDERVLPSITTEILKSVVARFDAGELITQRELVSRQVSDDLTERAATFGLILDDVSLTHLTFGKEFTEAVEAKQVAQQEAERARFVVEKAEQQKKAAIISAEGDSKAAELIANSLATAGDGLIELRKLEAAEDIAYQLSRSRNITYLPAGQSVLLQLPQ

Q: How did the “Abundance Ratio: (11) / (DMSO)” value (Prohibitin-2 (PHB2); sheet Exp1) turn out when `CC(=O)Oc1ccc2c(c1)Oc1cc(OC(C)=O)ccc1C21OC(=O)c2cc(C(=O)NCCOCCOCCNC(=O)CCCC(=O)N(CC#N)S(=O)(=O)c3ccc(C(=O)NCCCn4c(Sc5cc6c(cc5I)OCO6)nc5c(N)ncnc54)cc3)ccc21` [compound 11] was run?
A: 1.815

Q: What about the “Abundance Ratio: (11) / (11 with PU-H71)” value (Prohibitin-2 (PHB2); sheet Exp1) of the same molecule?
A: 0.795

Q: What about the “Abundance Ratio: (11) / (DMSO)” value (Prohibitin-2 (PHB2); sheet Merged) of the same molecule?
A: 1.815

Q: What about the “Abundance Ratio: (11) / (11 with PU-H71)” value (Prohibitin-2 (PHB2); sheet Merged) of the same molecule?
A: 0.795

Q: And the “Abundance Ratio: (11) / (11 with PU-H71)” value ([1]; Exp3, SLC19A1)?
A: 0.875

Q: What about the “Abundance Ratio: (11) / (DMSO)” value ([1]; Exp3, SLC19A1) of the same molecule?
A: 5.164

Q: What about the “Abundances (Grouped): 11” value ([1]; Exp3, SLC19A1) of the same molecule?
A: 56.8

Q: And the “Abundances (Grouped): 11 with PU-H71” value ([1]; Exp3, SLC19A1)?
A: 64.9

Q: And the “Abundance Ratio: (11) / (11 with PU-H71)” value ([1]; sheet Exp2, SLC19A1)?
A: 1.054

Q: And the “Abundance Ratio: (11) / (DMSO)” value ([1]; sheet Exp2, SLC19A1)?
A: 3.79

Q: And the “Abundances (Grouped): 11” value ([1]; sheet Exp2, SLC19A1)?
A: 111.8

Q: And the “Abundances (Grouped): 11 with PU-H71” value ([1]; sheet Exp2, SLC19A1)?
A: 106.1

Q: And the “Abundance Ratio: (11) / (DMSO)” value [1, 4]?
A: 4.595

Q: What about the “Abundance Ratio: (11) / (11 with PU-H71)” value [1, 5] of the same molecule?
A: 0.985

Q: What about the “Abundance Ratio: (11) / (11 with PU-H71)” value ([2]; Exp3, ABCC5) of the same molecule?
A: 0.868

Q: And the “Abundance Ratio: (11) / (DMSO)” value ([2]; Exp3, ABCC5)?
A: 4.007

Q: What about the “Abundances (Grouped): 11” value ([2]; Exp3, ABCC5) of the same molecule?
A: 227.2

Q: And the “Abundances (Grouped): 11 with PU-H71” value ([2]; Exp3, ABCC5)?
A: 261.9

Q: And the “Abundance Ratio: (11) / (DMSO)” value [2, 6]?
A: 1.935

Q: What about the “Abundance Ratio: (11) / (11 with PU-H71)” value [2, 7] of the same molecule?
A: 1.002

Q: And the “Abundance Ratio: (11) / (11 with PU-H71)” value ([2]; sheet Exp2, ABCC5)?
A: 0.947

Q: What about the “Abundance Ratio: (11) / (DMSO)” value ([2]; sheet Exp2, ABCC5) of the same molecule?
A: 2.92

Q: And the “Abundances (Grouped): 11” value ([2]; sheet Exp2, ABCC5)?
A: 189.2

Q: What about the “Abundances (Grouped): 11 with PU-H71” value ([2]; sheet Exp2, ABCC5) of the same molecule?
A: 199.7

Q: And the “Abundance Ratio: (11) / (DMSO)” value [2, 4]?
A: 3.871

Q: And the “Abundance Ratio: (11) / (11 with PU-H71)” value [2, 5]?
A: 0.868

Q: And the “Abundance Ratio: (11) / (11 with PU-H71)” value ([3]; Exp3, TUBB)?
A: 0.804

Q: And the “Abundance Ratio: (11) / (DMSO)” value ([3]; Exp3, TUBB)?
A: 4.633

Q: And the “Abundances (Grouped): 11” value ([3]; Exp3, TUBB)?
A: 127.4

Q: And the “Abundances (Grouped): 11 with PU-H71” value ([3]; Exp3, TUBB)?
A: 158.4

Q: What about the “Abundance Ratio: (11) / (DMSO)” value [3, 6] of the same molecule?
A: 3.833

Q: What about the “Abundance Ratio: (11) / (11 with PU-H71)” value [3, 7] of the same molecule?
A: 0.775

Q: What about the “Abundance Ratio: (11) / (11 with PU-H71)” value ([3]; sheet Exp2, TUBB) of the same molecule?
A: 0.757

Q: What about the “Abundance Ratio: (11) / (DMSO)” value ([3]; sheet Exp2, TUBB) of the same molecule?
A: 3.139

Q: And the “Abundances (Grouped): 11” value ([3]; sheet Exp2, TUBB)?
A: 115.5

Q: And the “Abundances (Grouped): 11 with PU-H71” value ([3]; sheet Exp2, TUBB)?
A: 152.6

Q: What about the “Abundance Ratio: (11) / (DMSO)” value [3, 4] of the same molecule?
A: 3.599

Q: And the “Abundance Ratio: (11) / (11 with PU-H71)” value [3, 5]?
A: 0.804
